Each block holds one compound with its values, some of them ahead of it.
Experiments:
NK1 (h) Tachykinin [1] = biological target: T1, NK1 (h) Tachykinin (Homo sapiens, UniProt P25103); design: method as in Eurofins Panlab; conditions: as reported by Eurofins Panlab, ref Eurofins Panlab, read-out: Reference Antagonists of Respective Target Receptors IC50; cited from earlier work
[2] = biological target: T2, V1A (h) Vasopressin/Oxytocin (Homo sapiens, UniProt P37288); test: Cell-based functional GPCR assay, antagonist effect; conditions: read-out: % Inhibition of Control Agonist Response
T2 sequence (P37288 whole entry): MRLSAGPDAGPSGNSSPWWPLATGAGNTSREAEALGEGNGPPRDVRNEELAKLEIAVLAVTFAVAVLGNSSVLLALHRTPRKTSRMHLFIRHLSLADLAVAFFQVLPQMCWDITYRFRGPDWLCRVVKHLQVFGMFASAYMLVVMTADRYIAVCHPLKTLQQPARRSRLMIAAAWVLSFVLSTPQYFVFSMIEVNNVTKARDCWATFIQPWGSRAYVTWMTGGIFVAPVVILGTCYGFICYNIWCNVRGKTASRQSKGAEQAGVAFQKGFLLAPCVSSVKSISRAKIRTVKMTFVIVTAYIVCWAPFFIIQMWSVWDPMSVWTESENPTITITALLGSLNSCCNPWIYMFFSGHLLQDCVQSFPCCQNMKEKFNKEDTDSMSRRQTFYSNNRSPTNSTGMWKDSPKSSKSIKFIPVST
Protocol: (§1) A functional GPCR cell-based assay presents readouts of multiple second messengers including cAMP for Gi and Gs-coupled receptors and IP1 and IP3/calcium flux for Gq-coupled receptors. Functional assays were conducted at Eurofins Cerep (Le Bois I’Eveque, France) using transected cells expressing human cloned receptors. The in-house functional assay protocol (https://www.eurofinsdiscoveryservices.com/cms/cms-content/services/in-vitro-assays/gpcrs/functional/) and experimental conditions are shown in Supplementary Table S1. Stable cell lines expressing recombinant GPCRs were used in this study.
(§2) The method used to quantify the intracellular [Ca^2+] level varied slightly according to receptor type. However, in general, cells expressing different receptors (Table 1) were transfected with an expression vector encoding a receptor polypeptide and were allowed to grow for a time period sufficient for that receptor to be expressed. A fluorescent probe (Fluo8 Direct, Invitrogen, Carlsbad, CA, USA) mixed with probencid in HBSS buffer (Invitrogen, Carlsbad, CA, USA) supplemented with […] (Invitrogen) (pH 7.4) was then added to each well and allowed to equilibrate with the cells for 60 min at 37 °C. Thereafter, assay plates were positioned in a microplate reader (CellLux, PerkinElmer, Waltham, MA, USA) and eckol (25 and 50 μM), reference agonist, or HBSS buffer (basal control) were added, and measurements of the change in fluorescence intensity, which varies proportionally to the free cytosolic Ca^2+ ion concentration, were taken. Standard reference control (agonist and antagonist) values are presented in Table 1, and controls were included in each experiment at several concentrations to generate a concentration-response curve from which to calculate EC50 values.
(§3) Cellular agonist effect was calculated as the percentage of the control response to a known reference agonist for each target and the cellular antagonist effect was calculated as the percentage inhibition of the control reference agonist response for each target. Results are expressed as a percentage of control agonist response or inverse agonist response (measured response/control response × 100) and as percent inhibition of control agonist response [100 − (measured response/control response × 100)] obtained in the presence of the eckol.

5-HT1A (h) Serotonin [3] = biological target: T3, 5-HT1A (h) Serotonin (Homo sapiens, UniProt P08908); test: as above; conditions: read-out: % Inhibition of Control Agonist Response
T3 sequence (P08908 1-422): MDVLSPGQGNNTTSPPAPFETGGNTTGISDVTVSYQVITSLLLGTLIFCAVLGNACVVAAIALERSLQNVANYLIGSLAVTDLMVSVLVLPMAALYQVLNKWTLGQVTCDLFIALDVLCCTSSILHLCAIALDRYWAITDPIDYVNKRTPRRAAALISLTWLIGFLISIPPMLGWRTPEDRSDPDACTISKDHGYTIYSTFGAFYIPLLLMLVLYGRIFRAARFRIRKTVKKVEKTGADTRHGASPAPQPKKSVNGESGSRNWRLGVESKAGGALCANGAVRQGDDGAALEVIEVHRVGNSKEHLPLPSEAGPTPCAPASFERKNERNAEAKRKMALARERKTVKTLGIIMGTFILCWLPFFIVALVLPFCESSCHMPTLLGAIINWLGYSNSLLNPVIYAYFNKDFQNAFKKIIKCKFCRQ
Protocol: as §1, §2, §3

NK1 (h) Tachykinin [4] = biological target: T1, NK1 (h) Tachykinin; test: as above; conditions: read-out: % Inhibition of Control Agonist Response
Protocol: as §1, §2, §3

[5] = biological target: T4, M5 (h) Acetylcholine (muscarinic) (Homo sapiens, UniProt P08912); test: as above; conditions: read-out: % Inhibition of Control Agonist Response
T4 sequence (P08912 1-532): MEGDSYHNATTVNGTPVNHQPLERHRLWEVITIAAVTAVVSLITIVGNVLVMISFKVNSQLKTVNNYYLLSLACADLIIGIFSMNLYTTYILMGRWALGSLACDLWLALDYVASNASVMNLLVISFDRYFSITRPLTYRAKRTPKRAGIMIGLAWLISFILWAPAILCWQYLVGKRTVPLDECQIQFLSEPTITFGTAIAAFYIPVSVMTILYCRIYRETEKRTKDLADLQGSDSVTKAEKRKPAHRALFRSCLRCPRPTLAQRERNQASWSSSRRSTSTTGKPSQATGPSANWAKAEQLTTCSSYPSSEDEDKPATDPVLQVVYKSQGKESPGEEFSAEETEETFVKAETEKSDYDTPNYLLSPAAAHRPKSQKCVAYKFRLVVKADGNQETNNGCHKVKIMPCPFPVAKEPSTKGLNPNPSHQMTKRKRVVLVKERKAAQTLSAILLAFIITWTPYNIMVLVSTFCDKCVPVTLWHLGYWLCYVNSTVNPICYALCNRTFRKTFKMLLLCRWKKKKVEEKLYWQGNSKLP
Protocol: as §1, §2, §3

[6] = biological target: T2, V1A (h) Vasopressin/Oxytocin; test: Cell-based functional GPCR assay, agonist effect; conditions: read-out: % of Control Agonist Response
Protocol: as §1, §2, §3

5-HT1A (h) Serotonin [7] = biological target: T3, 5-HT1A (h) Serotonin; test: Cell-based functional GPCR assay, agonist effect; conditions: read-out: % of Control Agonist Response
Protocol: as §1, §2, §3

NK1 (h) Tachykinin [8] = biological target: T1, NK1 (h) Tachykinin; test: Cell-based functional GPCR assay, agonist effect; conditions: read-out: % of Control Agonist Response
Protocol: as §1, §2, §3

[9] = biological target: T4, M5 (h) Acetylcholine (muscarinic); test: Cell-based functional GPCR assay, agonist effect; conditions: read-out: % of Control Agonist Response
Protocol: as §1, §2, §3

D3 (h) Dopamine [10] = biological target: T5, D3 (h) Dopamine (Homo sapiens, UniProt P35462); test: Cell-based functional GPCR assay, antagonist effect (cAMP); conditions: read-out: % Inhibition of Control Agonist Response
T5 sequence (P35462 whole entry): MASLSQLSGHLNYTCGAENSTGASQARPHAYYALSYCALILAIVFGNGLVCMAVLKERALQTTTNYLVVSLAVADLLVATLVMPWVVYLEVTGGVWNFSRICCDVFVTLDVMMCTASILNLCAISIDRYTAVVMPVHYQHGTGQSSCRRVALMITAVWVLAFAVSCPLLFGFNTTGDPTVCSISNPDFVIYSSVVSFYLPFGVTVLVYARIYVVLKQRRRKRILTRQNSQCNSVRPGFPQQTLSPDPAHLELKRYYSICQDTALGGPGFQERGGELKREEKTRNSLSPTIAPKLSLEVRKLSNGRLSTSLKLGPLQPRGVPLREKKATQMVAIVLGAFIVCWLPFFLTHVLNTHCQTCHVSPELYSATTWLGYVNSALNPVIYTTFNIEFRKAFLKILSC
Protocol: as §1
(§4) . Following incubation, cells were lysed and a fluorescence acceptor (D2-labeled cAMP) and fluorescence donor (anti-cAMP antibody with europium cryptate) were added. After 60 min at room temperature, fluorescence transfer was measured at λex = 337 nm and λem = 620 and 665 nm using a microplate reader (Envison, Perkin Elmer, Waltham, MA, USA). Cyclic AMP concentration was determined by dividing the signal measured at 665 nm by that measured at 620 nm (ratio). […].
as §3

D4 (h) Dopamine [11] = biological target: T6, D4 (h) Dopamine (Homo sapiens, UniProt P21917); test: as above; conditions: read-out: % Inhibition of Control Agonist Response
T6 sequence (P21917 1-419): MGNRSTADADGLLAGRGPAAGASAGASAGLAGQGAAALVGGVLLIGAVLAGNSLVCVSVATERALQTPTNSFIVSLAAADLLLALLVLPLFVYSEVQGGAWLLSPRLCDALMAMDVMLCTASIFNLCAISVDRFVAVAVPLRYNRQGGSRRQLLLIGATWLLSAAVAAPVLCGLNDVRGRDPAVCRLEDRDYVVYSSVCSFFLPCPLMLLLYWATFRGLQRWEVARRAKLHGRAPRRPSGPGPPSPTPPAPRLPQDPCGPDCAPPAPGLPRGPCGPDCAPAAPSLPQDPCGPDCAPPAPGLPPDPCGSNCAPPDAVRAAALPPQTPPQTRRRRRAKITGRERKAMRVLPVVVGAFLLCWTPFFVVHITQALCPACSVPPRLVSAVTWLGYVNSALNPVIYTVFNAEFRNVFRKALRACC
Protocol: as §1, §4, §3

D1 (h) Dopamine [12] = biological target: T7, D1 (h) Dopamine (Homo sapiens, UniProt P21728); test: as above; conditions: read-out: % Inhibition of Control Agonist Response
T7 sequence (P21728 whole entry): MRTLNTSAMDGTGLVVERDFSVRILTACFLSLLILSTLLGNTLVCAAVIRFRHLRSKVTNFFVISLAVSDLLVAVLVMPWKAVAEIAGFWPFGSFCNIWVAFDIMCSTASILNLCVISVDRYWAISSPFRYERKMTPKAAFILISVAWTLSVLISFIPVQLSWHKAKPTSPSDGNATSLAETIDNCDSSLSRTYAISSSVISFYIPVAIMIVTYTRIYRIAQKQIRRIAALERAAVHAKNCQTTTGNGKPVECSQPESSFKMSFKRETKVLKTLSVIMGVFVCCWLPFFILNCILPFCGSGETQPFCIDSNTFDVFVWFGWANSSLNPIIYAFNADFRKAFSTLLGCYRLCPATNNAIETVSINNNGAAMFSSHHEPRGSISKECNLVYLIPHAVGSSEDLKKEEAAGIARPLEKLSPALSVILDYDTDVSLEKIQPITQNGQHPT
Protocol: as §1, §4, §3

D3 (h) Dopamine [13] = biological target: T5, D3 (h) Dopamine; test: Cell-based functional GPCR assay, agonist effect (cAMP)
Protocol: as §1, §4, §3

D4 (h) Dopamine [14] = biological target: T6, D4 (h) Dopamine; test: as above
Protocol: as §1, §4, §3

D1 (h) Dopamine [15] = biological target: T7, D1 (h) Dopamine; test: as above; conditions: read-out: % of Control Agonist Response
Protocol: as §1, §4, §3

[16] = 25 μM, read-out: % of Control Agonist Response
[17] = 50 μM, read-out: % of Control Agonist Response
[18] = read-out: EC50 (concentration producing a half-maximal agonist response)

T1 sequence (P25103 whole entry): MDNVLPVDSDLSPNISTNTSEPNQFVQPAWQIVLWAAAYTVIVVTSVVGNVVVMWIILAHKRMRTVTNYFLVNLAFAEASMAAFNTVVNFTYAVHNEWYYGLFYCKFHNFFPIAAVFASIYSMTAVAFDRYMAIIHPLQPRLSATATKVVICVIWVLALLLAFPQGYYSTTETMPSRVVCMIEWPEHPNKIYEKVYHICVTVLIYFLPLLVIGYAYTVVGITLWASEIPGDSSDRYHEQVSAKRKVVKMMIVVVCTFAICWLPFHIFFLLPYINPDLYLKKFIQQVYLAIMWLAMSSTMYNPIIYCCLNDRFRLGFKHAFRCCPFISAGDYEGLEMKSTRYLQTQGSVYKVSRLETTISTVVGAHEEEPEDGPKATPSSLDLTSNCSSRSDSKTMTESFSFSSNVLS

Structure (SMILES): FC(F)(F)c1cc(CO[C@H]2CCCN[C@H]2c2ccccc2)cc(C(F)(F)F)c1 [L 733,060]
IC50 (NK1 (h) Tachykinin [1]): 0.00021 µM

inhibition at 25 µM ([2]; 25 μM): -13.5 ± 6.93%
inhibition at 50 µM ([2]; 50 μM): -4.26 ± 11.1%
inhibition at 25 µM (5-HT1A (h) Serotonin [3]; 25 μM): 6.17 ± 10.3%
inhibition at 50 µM (5-HT1A (h) Serotonin [3]; 50 μM): 3.49 ± 4.33%
inhibition at 25 µM (NK1 (h) Tachykinin [4]; 25 μM): -11.3 ± 6.37%
inhibition at 50 µM (NK1 (h) Tachykinin [4]; 50 μM): -4.32 ± 3.33%
inhibition at 25 µM ([5]; 25 μM): 1 ± 0.4%
inhibition at 50 µM ([5]; 50 μM): -4.8 ± 2.25%
activity at 25 µM ([6]; 25 μM): -8.91 ± 3.2%
activity at 50 µM ([6]; 50 μM): -12.5 ± 0.51%
activity at 25 µM (5-HT1A (h) Serotonin [7]; 25 μM): -1.78 ± 0.45%
activity at 50 µM (5-HT1A (h) Serotonin [7]; 50 μM): -3.04 ± 1.23%
activity at 25 µM (NK1 (h) Tachykinin [8]; 25 μM): -2.32 ± 0.26%
activity at 50 µM (NK1 (h) Tachykinin [8]; 50 μM): -2.99 ± 0.21%
activity at 25 µM ([9]; 25 μM): 0.38 ± 0.1%
activity at 50 µM ([9]; 50 μM): 0.39 ± 0.46%
inhibition at 25 µM (D3 (h) Dopamine [10]; 25 μM): -9 ± 6.98%
inhibition at 50 µM (D3 (h) Dopamine [10]; 50 μM): -15.1 ± 2.51%
inhibition at 25 µM (D4 (h) Dopamine [11]; 25 μM): 1.33 ± 1.7%
inhibition at 50 µM (D4 (h) Dopamine [11]; 50 μM): -3.33 ± 4.7%
inhibition at 25 µM (D1 (h) Dopamine [12]; 25 μM): 11.6 ± 2.15%
inhibition at 50 µM (D1 (h) Dopamine [12]; 50 μM): 1.89 ± 1.62%
activity at 25 µM (D3 (h) Dopamine [13]; [16]): 10.6 ± 4.16%
activity at 50 µM (D3 (h) Dopamine [13]; [17]): 53.1 ± 6.67%
EC50 (D3 (h) Dopamine [13]; [18]): 48.6 ± 3.21 µM
activity at 25 µM (D4 (h) Dopamine [14]; [16]): 36.5 ± 10.9%
activity at 50 µM (D4 (h) Dopamine [14]; [17]): 54.7 ± 7.05%
EC50 (D4 (h) Dopamine [14]; [18]): 42.6 ± 2.54 µM
activity at 25 µM (D1 (h) Dopamine [15]; 25 μM): -0.58 ± 2.46%
activity at 50 µM (D1 (h) Dopamine [15]; 50 μM): -2.77 ± 1.27%
Structure (SMILES): Oc1cc(O)cc(Oc2c(O)cc(O)c3c2Oc2c(O)cc(O)cc2O3)c1 [Eckol, eckol]

From article PMC6409773 (Marine Drugs, 2019)
